From US12048678B2, “Compounds for treating myelin related disorders” (Case Western Reserve University, priority 2018, dated 2024)

Assays:
kappa opioid receptor = kappa opioid receptor (Homo sapiens, UniProt P41145); assay: k-Opioid receptor agonism assay (Tango  U2OS cells); format: cell-based; details: Compound 1 at 1 μM, TASIN-1 100 nM, U50488 2 μM
EBP = molecular target: T1, EBP (Mus musculus, UniProt P70245); assay: EBP enzymatic assay; format: biochemical; details: 10 μM, FIG. 4a
T1 construct: active EBP was obtained from mouse microsomes; from tissue
T1 sequence (P70245 1-230): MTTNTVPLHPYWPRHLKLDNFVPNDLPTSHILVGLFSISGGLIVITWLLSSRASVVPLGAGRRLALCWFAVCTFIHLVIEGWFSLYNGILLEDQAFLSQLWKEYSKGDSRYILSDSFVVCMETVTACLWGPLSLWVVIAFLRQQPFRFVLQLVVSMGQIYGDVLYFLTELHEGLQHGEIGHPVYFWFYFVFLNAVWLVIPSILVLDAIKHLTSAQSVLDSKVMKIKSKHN
Procedure: EBP enzymatic activity was measured using a reported method with slight modifications: active EBP was obtained from mouse microsomes, inhibitors were added, zymostenol was added at a final concentration of 25 μM in a final reaction volume of 500 μl, and the reaction incubated at 37° C. for 2 h. Sterols were extracted using 3×1 ml hexanes, cholesterol-d7 was added to enable quantitation, and the pooled organics were dried (Na2SO4) and evaporated under nitrogen gas. Samples were then silylated and analyzed using GC/MS as described above.

[1] = molecular target: T2, estrogen receptor (T47D cells) (Homo sapiens, UniProt P03372); assay: Estrogen-dependent cell proliferation assay; format: cell-based; details: Compound 1 at 1 μM, TASIN-1 100 nM
T2 construct: estrogen dependent growth of T47D cells; endogenous in cells; host or cells: T47D
T2 sequence (P03372 1-595): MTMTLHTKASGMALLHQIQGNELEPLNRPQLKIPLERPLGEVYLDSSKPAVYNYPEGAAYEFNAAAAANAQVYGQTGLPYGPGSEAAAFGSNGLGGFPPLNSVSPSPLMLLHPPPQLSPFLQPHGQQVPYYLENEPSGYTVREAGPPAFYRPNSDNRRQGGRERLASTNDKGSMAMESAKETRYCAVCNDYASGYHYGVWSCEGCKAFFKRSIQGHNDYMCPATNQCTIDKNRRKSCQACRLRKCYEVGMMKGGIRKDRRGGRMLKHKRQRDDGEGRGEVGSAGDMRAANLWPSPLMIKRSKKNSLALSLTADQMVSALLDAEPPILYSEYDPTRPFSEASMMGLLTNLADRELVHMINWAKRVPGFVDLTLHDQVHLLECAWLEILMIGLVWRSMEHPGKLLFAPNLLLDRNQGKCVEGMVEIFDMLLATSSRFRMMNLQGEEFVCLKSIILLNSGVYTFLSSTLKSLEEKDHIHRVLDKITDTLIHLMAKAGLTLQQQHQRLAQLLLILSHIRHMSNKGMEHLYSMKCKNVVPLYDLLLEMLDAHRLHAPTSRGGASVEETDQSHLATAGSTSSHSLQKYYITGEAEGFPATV
Procedure: Estrogen-dependent cell proliferation was measured as previously described with minor modifications. After growth in estrogen-free media (Phenol red-free RPMI supplemented with 10% charcoal stripped fetal bovine serum) for 5 days, cells were seeded at 2,500 cells/well into 96 well plates. The following day 3× drug containing media was added to triplicate wells and cells were allowed to grow for an additional 5 days at 37° C. in standard a 5% CO2 humidified incubator. Total DNA per well was measured using an adaptation of the method of Labarca and Paigen. At this time media was removed, cells were washed one time with 0.25×PBS and 100 μl of distilled water was added. […] After incubation at room temperature for 2 hours, plates were read in a SpectraMax i3 fluorescent plate reader (Molecular Devices, Sunnyvale, CA) with excitation at 360 nm and emission at 460 nm. All values were converted to microgram DNA per well using a standard curve derived from purified salmon testes DNA.

[2] = tested on: cholesterol biosynthesis in OPCs (CYP51, TM7SF2, EBP); assay: GC/MS-based sterol profiling in OPCs; format: cell-based, mouse; details: range of doses, GC-MS sterol profiling, FIG. 3f
Procedure: EpiSC-derived OPCs were plated at 0.5 million cells per ml in PDL- and laminin-coated six or twelve well plate with differentiation media. After 24 hours, cells were dissociated with Accutase, rinsed with saline, and cell pellets were frozen. For sterol analyses, cells were lysed in methanol (Sigma-Aldrich) with agitation for 30 minutes and cell debris removed by centrifugation at 10,000 rpm for 15 min. Cholesterol-d7 standard (25,26,26,26,27,27,27-^2H7-cholesterol, Cambridge Isotope Laboratories) was added before drying under nitrogen stream and derivatization with 55 μl of bis(trimethylsilyl)trifluoroacetamide/trimethylchlorosilane to form trimethylsilyl derivatives. Following derivatization at 60° C. for 20 minutes, 1 μl was analyzed by gas chromatography/mass spectrometry using an Agilent 5973 Network Mass Selective Detector equipped with a 6890 gas chromatograph system and a HP-5MS capillary column ([…]). Samples were injected in splitless mode and analyzed using electron impact ionization. Ion fragment peaks were integrated to calculate sterol abundance, and quantitation was relative to cholesterol-d7. The following m/z ion fragments were used to quantitate each metabolite: cholesterol-d7 (465), FF-Mas (482), cholesterol (368), zymostenol (458), zymosterol (456), desmosterol (456, 343), 7-dehydrocholesterol (456, 325), lanosterol (393), lathosterol (458), 14-dehydrozymostenol (456). Calibration curves were generated by injecting varying concentrations of sterol standards and maintaining a fixed amount of cholesterol-D7. The human glioma cell line GBM528 was a gift of Jeremy Rich (Cleveland Clinic). Human cortical spheroids were generated as described previously.

[3] = tested on: EpiSC derived OPCs on microfibers; assay: Oligodendrocyte formation and imaging on electrospun microfibers; format: cell-based, mouse; details: FIG. 4b
Procedure: A 12-well plate containing Mimetex aligned scaffold (microfiber plate, AMSBIO, AMS.TECL-006-1X, Electrospun poly-L-lactide Scaffold, […] fibre diameter cell crown inserts) was prepared as previously described. Briefly, fiber inserts were sterilized with 70% ethanol and washed with PBS before being coated with polyornithine and laminin. After laminin coating, 100,000 cells/mL of EpiSC derived OPCs (1.5 mL/well) were plated in differentiation medium. After 24 h the media was replaced with fresh media containing small molecule treatments. Every 48 h the media was replaced with fresh compound containing media for the first 4 days of 14 days culture. Microfibre inserts were fixed with 4% PFA, permeabilized with 0.1% Triton X-100, and blocked with 10% donkey serum (v/v) in PBS for 60 min. Then stained for MBP (Abcam, ab7349; 1:100) and DAPI staining (Sigma; 5 μg/ml). […] The mounted inserts were imaged on the Operetta High Content Imaging and Analysis system (PerkinElmer) and a set of 22 fields captured from each condition resulting in an average of 2000 cells being scored per well. The total microfiber area was calculated using bright filed imaging and a spot finding function (area larger than 2 p×2). The MBP+ pixel area within the defined microfiber area was then defined and the percentage of the total microfiber area calculated.

kappa opioid receptor, sequence (P41145 whole entry): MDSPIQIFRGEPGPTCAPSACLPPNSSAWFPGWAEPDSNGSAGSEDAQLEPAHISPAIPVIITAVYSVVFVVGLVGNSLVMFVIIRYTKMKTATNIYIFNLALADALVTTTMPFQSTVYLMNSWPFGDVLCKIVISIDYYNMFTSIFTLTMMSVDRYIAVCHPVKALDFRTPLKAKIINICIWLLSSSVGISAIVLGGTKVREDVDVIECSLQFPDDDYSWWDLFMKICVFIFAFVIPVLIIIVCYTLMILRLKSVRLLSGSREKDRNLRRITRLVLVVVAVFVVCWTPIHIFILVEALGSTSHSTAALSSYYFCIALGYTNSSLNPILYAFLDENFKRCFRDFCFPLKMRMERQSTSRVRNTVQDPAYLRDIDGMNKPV

c1ccc(-c2ccc(CN3CCCCCCC3)cc2)cc1 [Compound 1]
effect in cell-based assay for the kappa opioid receptor (kappa opioid receptor): little affinity | EBP inhibition in an in vitro enzymatic assay (EBP): enhanced potency for EBP inhibition | effect in cell-based assay for the estrogen receptor (estrogen dependent growth of T47D cells) [1]: little affinity | EBP inhibition in OPCs (zymostenol) [2]: enhanced potency for EBP inhibition | area of microfibers wrapped by MBP+ oligodendrocytes [3]: substantially increased
